The source of these data is US20230250095A1, “BENZIMIDAZOLE DERIVATIVES, PREPARATION METHOD THEREFOR AND MEDICAL USE THEREOF” (TUOJIE BIOTECH(SHANGHAI) CO., LTD., priority 2020, published 2023).

Broadly, the IC50 is the concentration needed to halve the response being measured.

Where only a bound is given, the exact number is not on record here.

The target in one series is T1, hP2X3 (Homo sapiens, UniProt P56373).
T1 construct: host or cells: 1321N1 cells
T1 sequence (P56373 1-397): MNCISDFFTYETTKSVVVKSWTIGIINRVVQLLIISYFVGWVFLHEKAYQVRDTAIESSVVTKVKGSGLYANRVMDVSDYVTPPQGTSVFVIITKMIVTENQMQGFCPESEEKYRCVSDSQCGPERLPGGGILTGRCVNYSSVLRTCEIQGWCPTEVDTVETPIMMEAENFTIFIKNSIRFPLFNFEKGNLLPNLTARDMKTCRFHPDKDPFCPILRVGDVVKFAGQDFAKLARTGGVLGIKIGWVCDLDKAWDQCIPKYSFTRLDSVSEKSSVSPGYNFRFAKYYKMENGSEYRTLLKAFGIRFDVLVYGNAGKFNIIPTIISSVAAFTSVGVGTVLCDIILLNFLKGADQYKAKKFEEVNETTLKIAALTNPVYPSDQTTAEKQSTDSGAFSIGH
Briefly: FLIPR calcium flux assay, antagonistic activity against hP2X3 receptor. Format: cell-based. To be noted: 1321N1/hP2X3 cells, agonist α,β-meATP 500 nM. How it is done:
(§1) The compounds were screened for antagonistic activity against hP2X3 and hP2X2/3 receptors (changes in calcium flux signals represent the effect of the compounds on ion channels) by an FLIPR assay.
(§2) 1321N1 cells (adherent cells) stably transfected with hP2X3 and hP2X2/3 receptors were digested, centrifuged, resuspended in a plating medium (DMEM+10% DFBS) and counted, adjusted to 2×10^5 cells/mL. The cells were seeded in a 384-well assay plate at 50 μL/well, and incubated in an incubator at 37° C. with 5% CO2 for 16-24 h. Test compounds (20 mM DMSO stock solution) that were 180 times the desired concentration were prepared with DMSO, and added to a 384-well compound plate at 500 nL/well. Then, each well was supplemented with 30 μL of FLIPR buffer (lx HBSS containing 1.26 mM Ca^2++2 mM CaCl2)+20 mM HEPES), and the mixture was shaken for 20-40 min to be mixed well. The agonist α,β-meATP (final concentration of 500 nM for hP2X3 cells and final concentration of 1000 nM for hP2X2/3 cells) that was 3 times the desired concentration was prepared with an FLIPR buffer, and added to another 384-well compound plate at 35 μL/well. The cell plate in which cells had been plated and cultured for 16-24 h was taken out, and the cell supernatant was removed by pipetting. 30 μL of dye (FLIPR® calcium 4 assay kit, diluted with an FLIPR buffer) was added to each well, and the plate was incubated for 1 h. 15 μL of the compound was added to each well containing cells (dosing using an FLIPR instrument), and after 15 min, 22.5 μL of agonist was added to each well and the fluorescent signal was detected (excitation wavelength: 470-495 nm, emission wavelength: 515-575 nm). With the difference between the peak and the trough of the signal taken as the basic data, the data of the highest concentration of the positive drug taken as the 100% inhibition rate, and the data of DMSO taken as the 0% inhibition rate, the inhibition effect curves of the compounds were fitted on the software Graphpad Prism 6 and IC50 values were calculated.
A general note: Calcium assays in cells follow changes in intracellular calcium, usually with a dye or a luminescent sensor.
For `CC(=O)N1CCO[C@@H](Cn2c(-c3c(F)cc(N4CCCC4=O)cc3F)nc3cc(C(F)F)ccc32)C1` [Compound 5, (S)-1-(4-(1-((4-acetylmorpholin-2-yl)methyl)-5-(difluoromethyl)-1H-benzo[d]imidazol-2-yl)-3,5-difluorophenyl)pyrrolidin-2-one], the IC50 came to 100 nM.

In the case of `CNC(=O)c1cc(F)c(-c2nc3cc(C)cnc3n2C[C@H]2CN(C(=O)OC)CCO2)c(F)c1` [Compound 6, Methyl (S)-2-((2-(2,6-difluoro-4-(methylcarbamoyl)phenyl)-6-methyl-3H-imidazo[4,5-b]pyridin-3-yl)methyl)morpholine-4-carboxylate], the IC50 was more than 10000 nM.

Consider `CNC(=O)c1cc(F)c(-c2nc3nc(C)ccc3n2C[C@H]2CN(C(=O)OC)CCO2)c(F)c1` [Compound 7, Methyl (S)-2-((2-(2,6-difluoro-4-(methylcarbamoyl)phenyl)-5-methyl-1H-imidazo[4,5-b]pyridin-1-yl)methyl)morpholine-4-carboxylate], for which the IC50 was determined as 5840 nM.

`CNC(=O)c1cc(F)c(-c2nc3cc(C)ncc3n2C[C@H]2CN(C(=O)OC)CCO2)c(F)c1` [Compound 8, Methyl (S)-2-((2-(2,6-difluoro-4-(methylcarbamoyl)phenyl)-6-methyl-3H-imidazo[4,5-c]pyridin-3-yl)methyl)morpholine-4-carboxylate]: the IC50 is more than 10000 nM.

As for `CC(=O)N1CCO[C@@H](Cn2c(-c3c(F)cc(N4CCCC4=O)cc3Cl)nc3cc(C)c(F)cc32)C1` [Compound 11, (S)-1-(4-(1-((4-acetylmorpholin-2-yl)methyl)-6-fluoro-5-methyl-1H-benzo[d]imidazol-2-yl)-3-chloro-5-fluorophenyl)pyrrolidin-2-one], the IC50 was found to be 79.4 nM.

As for `CC(=O)N1CCO[C@@H](Cn2c(-c3c(F)cc(N4CCCC4=O)cc3Cl)nc3cc(Cl)c(F)cc32)C1` [Compound 12, (S)-1-(4-(1-((4-acetylmorpholin-2-yl)methyl)-5-chloro-6-fluoro-1H-benzo[d]imidazol-2-yl)-3-chloro-5-fluorophenyl)pyrrolidin-2-one], the IC50 amounted to 87.7 nM.

As for `CC(=O)N1CCO[C@@H](Cn2c(-c3c(F)cc(N4CCCC4=O)cc3F)nc3cc(Cl)cc(F)c32)C1` [Compound 13, (S)-1-(4-(1-((4-acetylmorpholin-2-yl)methyl)-5-chloro-7-fluoro-1H-benzo[d]imidazol-2-yl)-3,5-difluorophenyl)pyrrolidin-2-one], the IC50 came out at 766 nM.

As for `Cc1ccc2c(c1)nc(-c1c(F)cc(N3CCCC3=O)cc1Cl)n2C[C@H]1CN(C(=O)C2CC2)CCO1` [Compound 15, (S)-1-(3-chloro-4-(1-((4-(cyclopropylcarbonyl)morpholin-2-yl)methyl)-5-methyl-1H-benzo[d]imidazol-2-yl)-5-fluorophenyl)pyrrolidin-2-one], the IC50 turned out to be 85.1 nM.

Take `Cc1ccc2c(c1)nc(-c1c(F)cc(N3CCCC3=O)cc1Cl)n2C[C@H]1CN(C(=O)CC(F)(F)F)CCO1` [Compound 16, (S)-1-(3-chloro-5-fluoro-4-(5-methyl-1-((4-(3,3,3-trifluoropropionyl)morpholin-2-yl)methyl)-1H-benzo[d]imidazol-2-yl)phenyl)pyrrolidin-2-one]: the IC50 was determined as 70.5 nM.

Turning to `CCC(=O)N1CCO[C@@H](Cn2c(-c3c(Cl)cc4c(c3F)OCC(=O)N4)nc3cc(C)ccc32)C1` [Compound 17, (S)-6-chloro-8-fluoro-7-(5-methyl-1-((4-propionylmorpholin-2-yl)methyl)-1H-benzo[d]imidazol-2-yl)-2H-benzo[b][1,4]oxazin-3(4H)-one], the IC50 turned out to be 45.3 nM.

The target of another series is T2, hP2X2/3 (Homo sapiens, UniProt P56373+Q9UBL9).
T2 construct: host or cells: 1321N1 cells
T2 sequence (Q9UBL9 1-471): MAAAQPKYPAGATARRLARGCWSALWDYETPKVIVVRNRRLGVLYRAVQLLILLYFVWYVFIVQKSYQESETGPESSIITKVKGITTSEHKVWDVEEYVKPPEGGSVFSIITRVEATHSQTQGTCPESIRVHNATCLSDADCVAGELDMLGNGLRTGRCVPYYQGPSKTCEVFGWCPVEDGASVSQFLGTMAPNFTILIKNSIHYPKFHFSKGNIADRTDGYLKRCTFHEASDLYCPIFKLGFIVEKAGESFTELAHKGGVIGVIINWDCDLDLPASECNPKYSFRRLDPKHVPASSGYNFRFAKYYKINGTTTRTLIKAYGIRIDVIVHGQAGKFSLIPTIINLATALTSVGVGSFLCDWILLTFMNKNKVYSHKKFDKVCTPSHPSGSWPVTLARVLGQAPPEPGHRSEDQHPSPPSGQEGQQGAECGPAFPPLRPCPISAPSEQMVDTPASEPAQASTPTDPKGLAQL
T2 sequence (P56373 1-397): T1 sequence (P56373 1-397)
Briefly: FLIPR calcium flux assay, antagonistic activity against hP2X2/3 receptor. The conditions noted are these: 1321N1/hP2X2/3 cells, agonist α,β-meATP 1000 nM. Format: cell-based. The procedure:
as §1, §2
With `CCC(=O)N1CCO[C@@H](Cn2c(-c3c(Cl)cc4c(c3F)OCC(=O)N4)nc3cc(C)ccc32)C1` [Compound 17, (S)-6-chloro-8-fluoro-7-(5-methyl-1-((4-propionylmorpholin-2-yl)methyl)-1H-benzo[d]imidazol-2-yl)-2H-benzo[b][1,4]oxazin-3(4H)-one], the IC50 was found to be 3500 nM.

System in a further series: not listed separately
Briefly: In vitro metabolic stability in human hepatocytes. To be noted: human hepatocytes 1×10^6 cells/mL, 37° C., up to 120 min; read-out: Intrinsic clearance (uL/min/10^6 cells). Format: in vitro ADME. The procedure:
The concentrations of the test compounds in the reaction system were determined by LC/MS/MS, so that the intrinsic clearance of the test compounds was calculated, and the in vitro metabolic stability in human hepatocytes was evaluated.
247.5 μL of a mixed solution of human hepatocytes at 1×10^6 cells/mL (purchased from BioreclamationIVT, Cat. No. S01205) and 2.5 μL of 100 μM test compound or positive control was added to a plate to initiate the reaction. The plate was incubated at 37° C. and 600 rpm. 20 μL of incubation system was transferred to a stop plate at 0.5 min, 5 min, 15 min, 30 min, 45 min, 60 min, 80 min, 100 min and 120 min. Then, the mixture was vortexed for 2 min to be mixed well. The stop plate was centrifuged at 4000 rpm for 20 min. 40 μL of supernatant of each compound was transferred to a 96-well sample template, after which 160 μL of pure water was added to dilute the samples.
The resulting samples were quantified from ion chromatogram. The residual rate was calculated from the peak area of the test compound or the positive control. Slope k was determined by linear regression of the […] of residual rates versus incubation time using Microsoft Excel.
Intrinsic clearance (in vitro CLint, μL/min/10^6 cells) was calculated from the slope value according to the following equation:
V=incubation volume (0.25 mL);
N=number of cells per well (0.25×10^6 cells)
In the case of `CCC(=O)N1CCO[C@@H](Cn2c(-c3c(Cl)cc4c(c3F)OCC(=O)N4)nc3cc(C)ccc32)C1` [Compound 17, (S)-6-chloro-8-fluoro-7-(5-methyl-1-((4-propionylmorpholin-2-yl)methyl)-1H-benzo[d]imidazol-2-yl)-2H-benzo[b][1,4]oxazin-3(4H)-one], the hepatocyte CLint at 1 μM is 4.1 µL/min/1e6 cells.
